Results: publication PMC9862175 (Molecules, 2023)
Several values for one entry are separate records, joined by “and”; a condition that tells them apart may be missing. Identical values can stand only once. Like-named read-outs stand apart in the source and are kept apart here.

Columns and labels:
17β-HSD1 = target: T1, 17β-HSD1 (Homo sapiens, UniProt P14061); test: 17β-HSD1 inhibition assay: transformation of [3H]-E1 to [3H]-E2 in whole T-47D cells; type: cell-based; details: for inhibition at 0.1 µM / inhibition at 1 µM / inhibition at 10 µM: T47D
T1 construct: endogenous in cells; host or cells: T-47D human breast cancer cells (ATCC), whole cells
T1 sequence (P14061 1-328): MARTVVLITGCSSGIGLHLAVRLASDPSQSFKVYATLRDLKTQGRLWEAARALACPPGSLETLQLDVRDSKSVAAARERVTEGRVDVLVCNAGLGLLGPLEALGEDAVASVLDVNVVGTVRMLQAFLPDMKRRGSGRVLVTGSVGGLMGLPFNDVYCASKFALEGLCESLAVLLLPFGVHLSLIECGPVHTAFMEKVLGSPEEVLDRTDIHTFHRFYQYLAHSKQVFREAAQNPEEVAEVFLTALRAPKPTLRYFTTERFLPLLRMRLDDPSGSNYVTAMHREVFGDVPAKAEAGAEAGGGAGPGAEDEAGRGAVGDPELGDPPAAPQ
Description: Cells were maintained under a 5% CO2 humidified atmosphere at 37 °C. The culture media were changed every two or three days and the cells were split once a week to maintain cell propagation.
T-47D cells were grown in a medium supplemented with insulin (50 ng/mL) and 5% dextran-coated charcoal-treated FBS, which was used rather than untreated 10% FBS, to remove the remaining steroid hormones. Stock solution of each compound to be tested was previously prepared in DMSO and diluted with a culture medium to achieve the appropriate concentrations, prior to use. For the assay, the cells (8000 cells/well) were seeded in a 24-well plate. After 24 h of incubation, a diluted solution of each inhibitor was added to the cells to obtain the appropriate final concentration (0.1, 1 and 10 μM). The final concentration of DMSO in the well was adjusted to 0.03%. […] Cells were incubated for 24 h and each inhibitor was assessed in triplicate. […] The organic phase was evaporated to dryness with nitrogen. Residues were dissolved in CH2Cl2, spotted on silica gel TLC plates (EMD Chemicals Inc., Gibbstown, NJ, USA) and eluted with toluene/acetone (4:1) as the solvent system. […] Each compound was quantified with a scintillation counter.

[1] = system: T-47D breast cancer cells; test: Cell viability (MTS) assay in T-47D cells; type: cell-based, human; details: for IC50: cell proliferation after 3 days, MTS; for Stimulation of ER+ cell proliferation (estrogenic activity): T-47D cells, 3 days
Description: T-47D cells: Human T-47D breast cancer cells were obtained from American Type Culture Collection (Manassas, VA, USA) and cultured in RPMI-1640 supplemented with L-glutamine ([…]), penicillin (100 IU/mL), streptomycin (100 µg/mL), 17β-estradiol (1 nM) and 10% (v/v) fetal bovine serum (FBS). Cells were maintained under a 5% CO2 humidified atmosphere at 37 °C. The culture media were changed every two or three days and the cells were split once a week to maintain cell propagation.
(§1) The cell proliferation assays were performed using 3-(4,5-dimethylthiazol-2-yl)-5-(3-carboxymethoxyphenyl)-2-(4-sulfophenyl)-2H-tetrazolium (MTS) (Cell Titer 96 Aqueous, Promega, Nepean, ON, Canada), as previously described. Briefly, cells (5000/well for T-47D or 3000/well for Z-12) were plated in triplicate in 96-well plates in appropriate culture medium (total of 90 µL). Before each treatment, the cells were incubated at 37 °C in a 5% CO2 humidified atmosphere for 24 h. Compounds 5, 6, 10 and RM-581, as positive control, were dissolved in DMSO to obtain stock solutions, which were diluted at multiple concentrations with culture media to obtain the desired final concentration by adding 10 µL in each well, and the mixture was incubated for 3 days. Following treatment, 20 µL of a solution of MTS were added to each well and the mixture was incubated for 4 h. The plates were subsequently analyzed at 490 nm using a Tecan M-200 microplate reader (Männedorf, Switzerland) and the concentration inhibiting 50% of cell proliferation was determined using GraphPad Prism 6 software.

[2] = system: Z-12 endometriotic epithelial cells; test: Cell viability (MTS) assay in Z-12 cells; type: cell-based, human; details: for IC50: cell proliferation after 3 days, MTS, read-out: Z-12 Cells (Endometriosis) (IC50 in μM), cell proliferation; for Stimulation of ER+ cell proliferation (estrogenic activity): Z-12 cells, 3 days
Description: Z-12 cells: Human Z-12 endometriotic epithelial cells were obtained from Dr. Asgi T. Fazleabas (Michigan State University, Grand Rapids, MI). Cells were grown in Dulbecco’s Modified Eagle medium (DMEM/F12) supplemented with 5% (v/v) FBS treated with dextran-coated charcoal, L-glutamine ([…]), penicillin (100 IU/mL) and streptomycin (100 µg/mL). Cells were maintained under a 5% CO2 humidified atmosphere at 37 °C. The culture media were changed every two or three days and the cells were split once a week to maintain cell propagation.
as §1

[3] = Homo sapiens, Epithelial cell, 72 h
[4] = read-out: Inhibition (IC50 in μM) of E1 to E2 transformation by 17β-HSD1, T-47D cells, [3H]-E1/E1 60 nM, 24 h
[5] = T-47D cells, [3H]-E1/E1 60 nM, 24 h, inhibitor 0.1 μM
[6] = T-47D cells, [3H]-E1/E1 60 nM, 24 h, inhibitor 1 μM
[7] = T-47D cells, [3H]-E1/E1 60 nM, 24 h, inhibitor 10 μM

Row | Compound | IC50 (17β-HSD1) [µM] | inhibition at 0.1 µM (17β-HSD1) [%] | inhibition at 1 µM (17β-HSD1) [%] | inhibition at 10 µM (17β-HSD1) [%] | IC50 ([1]; Homo sapiens, T47D, 72 h) [µM] | Stimulation of ER+ cell proliferation (estrogenic activity) [1] | IC50 [2, 3] [µM] | Stimulation of ER+ cell proliferation (estrogenic activity) [2] | further results
1 | C[C@]12CC[C@@H]3c4ccc(Oc5cccc(C(N)=O)c5)cc4CC[C@H]3[C@@H]1CCC2=O [Compound 5, 3-(3-Carbamoylphenyloxy)-estra-1,3,5(10)-trien-17-one] | 0.31 | 29.1 ± 6.2 | 70.7 ± 14.1 | 98.9 ± 2.8 | 49 | did not stimulate | > 30 | did not stimulate | –
2 | C[C@]12CC[C@@H]3c4ccc(Oc5cccc(C(N)=O)c5)cc4CC[C@H]3[C@@H]1CC[C@@H]2O [Compound 6, 3-(3-Carbamoylphenyloxy)-estra-1,3,5(10)-trien-17β-ol] | 1.2 | 40 ± 6.5 | 48.6 ± 15.7 | 59.6 ± 1.5 | 37 | did not stimulate | > 30 | did not stimulate | –
3 | C[C@]12CC[C@@H]3c4ccc(Oc5cccc(C(N)=O)c5)cc4CC[C@H]3[C@@H]1C[C@@H](CCCBr)[C@@H]2O [Compound 10, 3-(3-Carbamoylphenyloxy)-16α-(3-bromopropyl)-estra-1,3,5(10)-trien-17β-ol] | – | 28.2 ± 5.4 | 37 ± 14.5 | 82.1 ± 5.7 | 14 | did not stimulate | 20 | did not stimulate | Inhibitory activity, fold lower than EM-251 (17β-HSD1; IC50 1.3 μM vs 0.58 μM of EM-251, T-47D cells): 2 fold; IC50 (17β-HSD1; [4]): 1.3 µM
4 | C[C@]12CC[C@@H]3c4ccc(O)cc4CC[C@H]3[C@@H]1CCC2=O [E1, estrone] | – | – | – | – | – | – | – | – | inhibition at 0.1 µM (17β-HSD1; [5]): 45%; inhibition at 1 µM (17β-HSD1; [6]): 61%; inhibition at 10 µM (17β-HSD1; [7]): 78%; Inhibition (% at 0.1 μM) (17β-HSD1; [5]): 44.9 ± 14.7%; Inhibition (% at 1 μM) (17β-HSD1; [6]): 60.9 ± 8.3%; Inhibition (% at 10 μM) (17β-HSD1; [7]): 78.1 ± 2.2%
5 | C[C@]12CCC3c4ccc(O)cc4CCC3C1C[C@@H](CCCBr)[C@@H]2O (some centres unmarked) [EM-251] | 0.58 | 43.8 ± 0.2 | 36.9 ± 9.3 | 86.6 ± 8 | – | – | – | – | –
6 | C[C@]12CC[C@@H]3c4ccc(CCBr)cc4CC[C@H]3[C@@H]1C[C@H](Cc1cccc(C(N)=O)c1)[C@@H]2O [PBRM] | – | – | – | – | – | – | – | – | Inhibition (% at 0.1 μM) (17β-HSD1; [5]): 44% and 43.8 ± 3.4%; Inhibition (% at 1 μM) (17β-HSD1; [6]): 75% and 74.8 ± 3.2%; Inhibition (% at 10 μM) (17β-HSD1; [7]): 91.0 ± 3.8%; IC50 (17β-HSD1; [4]): 0.15 µM
7 | C#C[C@]1(O)CC[C@H]2[C@@H]3CCc4cc(OC)c(N5CCN(C(=O)[C@@H]6CCCN6C(=O)c6ccc7ccccc7n6)CC5)cc4[C@H]3CC[C@@]21C [RM-581, reference compound] | – | – | – | – | – | – | – | – | IC50 [1]: 0.61 µM; IC50 [2]: 1.5 µM
